Laboratory results from publication PMC10584170, “Machine learning-based phenotypic imaging to characterise the targetable biology of Plasmodium falciparum male gametocytes for the development of transmission-blocking antimalarials” (PLOS Pathogens, 2023).

Legend:
[1] = test system: P. falciparum male gametocytes; test: PhIDDLI screening assay, 24 h preincubation at 10xIC50, tubulin/DAPI imaging of male gametogenesis; assay type: cell-based, Plasmodium falciparum NF54; conditions: approximately 10xIC50, fixed 20 min post-induction
Experimental: Mature gametocytes were treated for 24h with approximately 10xIC50 of test compounds or DMSO as a solvent control. Male gametogenesis was then induced by lowering the temperature from 37°C to ~20°C and adding xanthurenic acid. 20min later, when male gametogenesis (exflagellation) could be expected to peak, all samples were fixed. A sample of non-induced DMSO-treated gametocytes was fixed with 4% paraformaldehyde to provide an unactivated gametocyte control for comparison. The cells were then processed for immunofluorescence using an antibody against alpha-tubulin II and DNA staining with 4′,6-diamidino-2-phenylindole (DAPI) and visualised by fluorescence microscopy. Tubulin-bright cells from each treated sample were imaged and captured at random.
Cells were identified using a semi-automated pipeline established in the ICY BioImageAnalysis (https://icy.bioimageanalysis.org/) protocols module. Images and accompanying bounding boxes representing the outlines of identified cells were then passed to the PhIDDLI pipeline. PhIDDLI consists of several open source image processing and AI/ML modules connected for seamless processing, clustering and visualisation of cellular phenotypes (Fig 3A). […] To focus on the overall cellular phenotype rather than potentially confounding variable immunostaining intensities between experimental replicates, cells were transformed so that the range of staining intensities for each channel were normalised to fall between a 0–255 pixel intensity value. Then, using the Albumentations module (https://albumentations.ai/) to augment the dataset and control for cells in different orientations, each extracted cell image was rotated 90, 180 and 270 degrees and mirrored so that each cell was represented eight different times in the dataset. The augmented images were then passed to the EffcientNet-B1 module (https://github.com/tensorflow/tpu/tree/master/models/official/efficientnet) (a pretrained neural network developed for image processing) which extracted 1,000 distinct numerical features from each individual cell image. The EfficientNet-B1 was selected from amongst the other EfficientNet models due to its input image size (240 pixels) best matching the size of the individual cell images in the dataset, therefore ensuring maximal input data whilst allowing acceptable computation time on a desktop computer. […]
Mature gametocyte cultures were divided into 100 μl “microcultures” in pre-warmed 1.5 ml tubes also containing 100 μl complete culture medium with test compounds at a final concentration of 10xIC50 or 0.5% DMSO as a solvent control. Tubes were gassed and incubated at 37°C for 24 h. The entire compound library was screened once, spread over four different experiments, each with two DMSO control tubes. An 8% formaldehyde solution was prepared by diluting 16% methanol-free formaldehyde in an equal volume of phosphate-buffered saline (PBS). In each experiment, one DMSO control tube was fixed with equal volume of 8% formaldehyde (4% final concentration) at 37°C to provide an “unactivated” gametocyte control. Gametogenesis was then triggered in the remaining DMSO control tube and all compound tubes by adding 10 μl ookinete medium, and they were immediately incubated at room temperature. After 20 min (when exflagellation is maximal), all remaining tubes were fixed for 30 min.
100 μl of the fixed cell suspensions were added to wells of a 24 well plate containing 1ml PBS and a poly-l-lysine-coated glass coverslip.

[2] = test system: P. falciparum protein kinase G (PfPKG); conditions: cited from earlier work
[3] = test system: P. berghei ookinete development; test: P. berghei Ookinete Development Assay (PbODA); assay type: cell-based, Plasmodium berghei; conditions: Mean TOX HepG2 over Pb ODA value; GREEN = >10-fold; RED = <10-fold

Compound	Cellular phenotype of male gametocytes [1]	activity against recombinant PfPKG [2]	Cytotox ratio Pb Ookinete [3]
CC(C)(CNC(=O)[C@H]1CCCCN1)c1nc(-c2ccc(Cl)c(O)c2)c(-c2ccncc2)[nH]1.Cl [TC04]	unactivated phenotype consistent with total arrest of gametogenesis	–	–
CC(C)(CN)c1nc(-c2ccc(Br)c(O)c2)c(-c2ccncc2)[nH]1.Cl [TC13]	unactivated phenotype consistent with total arrest of gametogenesis	had activity	38479.3
Cl.NCC1(c2nc(-c3ccc(Cl)c(O)c3)c(-c3ccncc3)[nH]2)CCCCC1 [TC41]	unactivated phenotype consistent with total arrest of gametogenesis	–	14844.9
